Results on five compounds are retold here after patent US11857521B1, “Anti-mycobacterial drugs” (priority 2022, dated 2024).

Where two headings read alike, the source gives them in different places.

Data set [1] deals with M. smegmatis. The experiment in a line: Checkerboard assay with OCG. It is filed as cell-based, Mycobacterium smegmatis. The settings on record: for Interaction / FICI (Fractional Inhibitory Concentration Index): drug in combination with OCG; for FICI (Fractional Inhibitory Concentration Index): range of three experiments.
The subject of data set [2] is M. smegmatis membrane potential (Δψ). To be noted: OCG at 2×MIC; CCCP at various concentrations. The protocol: Bacterial cells were grown to late log-phase in 7H9. Cells were centrifuged at 3000×g for 5 min at 25° C., washed twice and resuspended in 10 mL of 5 mM HEPES buffer, pH 7.2 supplemented with 1 mM glucose. OD600 of the cells was then adjusted to 0.4. The cell suspension was treated with 1 μM of the potentiometric probe 3,3′-Dipropylthiadicarbocyanine Iodide (DiSC3(5)) was added. It was incubated at 37° C., and monitored the quenching of DiSC3(5) dye in the presence of M. smegmatis cells for 30 min. In a black-sided 96-well microtiter plate, polymer solution was added to the plate and serially diluted two-fold in 50 mM HEPES buffer supplemented with 1 mM glucose and 2% DMSO for a final volume of 50 μL per well and 1% DMSO. After 30 min of quenching DiSC3(5), 50 μL of the bacterial suspension with dye was added to the polymer-containing wells. […] Fluorescence was recorded 590/635 nm (excitation/emission) for 1 h every 10 min on a BioTek Synergy H1 plate reader. Assay was performed at least three independent experiments.

Data set [3] concerns M. smegmatis mc^2155. It is filed as cell-based, Mycobacterium smegmatis.
A further data set concerns S. aureus ATCC 6538. It is filed as cell-based, Staphylococcus aureus.
For a further data set, the system named is E. coli ATCC 8739. It is filed as cell-based, Escherichia coli.
For data set [4] the following is noted: 2 mM OCG in 100 mM NaCl, titrated with 25 mM NaOH.
Experimental: The pH was measured using a Mettler Toledo in Lab Ultra-Micro pH Probe. The acidified solution was titrated at 5 μL increments of 25 mM NaOH. The pH readings were recorded from pH ˜2.5-11. After plotting ΔpH/Δvolume of NaOH, the two points where the largest change in pH occurred were found. The median volume between the two maxima was identified as the point where pH=pKa. Solution of 100 mM NaCl served as control. Experiment was performed in triplicates.
Data set [5] has as its system M. smegmatis mc^2155. To be noted: 4×MIC for 1 h.
Experimental: Similarly, outer membrane permeability assay using 10 μM N-Phenyl-2-naphthylamine in 4% acetone was used as a non-fluorescent dye that upon hydrophobic interaction, it emits fluorescence signal. Cells were grown to mid-log phase (OD600=0.5), centrifuged at 4000×g for 2 min at 25° C., washed and resuspended in 5 mM HEPES buffer, pH 7.2. Compounds were made in HEPES buffer and 50 μL was added to an optical bottom black-sided 96-well microtiter plate. Then 50 μL of 40 μM NPN solution and 100 μL of cell suspension were added to the plate. Fluorescence was measured at 350/400 nm (excitation/emission) for 1 h. Experiments were performed in triplicates.
The test system of data set [6] is M. smegmatis mc^2155. To be noted: 2×MIC.
Experimental: M. smegmatis mc^2155 was culture as previously described in the MIC assay. […] After treatment period, 500 μL of the solution was centrifuge at 3000×g for 30 s at 25° C. The pellet was resuspended in 1 mL glutaraldehyde/cacodylate fixative solution and stored at −20° C. before imaging. Images were analyzed for significant morphological changes. The frequency of membrane ruffling, membrane delamination, cytosolic leakage, and cells that appeared hollowed (i.e., cell death) were counted and divided by the total cell number per frame. The percent of the observed cell envelope stress indicators was used for statistical analysis.
For data set [7], the system named is M. smegmatis. To be noted: after 2 h of treatment.
For a further data set, the system named is MSMEG_5072. The settings on record: 2×MIC for an hour, sigA housekeeping gene.
Another data set deals with MSMEG_2694. The settings on record: 2×MIC for an hour, sigA housekeeping gene.
Where [8] appears, read: Mycolicibacterium smegmatis, single agent in checkerboard assay, M. smegmatis, read-out: MIC.

Experimental for MSMEG_2694: (§1) The bacterial cell suspension centrifuged at 40000×g for 5 min at 25° C. and resuspended in 1 mL guanidine thiocyanate (GTC) buffer. The cells were spun down at 12000×g for 5 min and resuspended in 750 μL of TRIzol reagent (Invitrogen), and added to 0.5 mL of 0.1 mm zirconia/silica beads. Cells were lysed in a bead beater for two 1 min intervals with incubation on ice between intervals. Afterwards, 2004 of chloroform was added to the tube, mixed, and spun at 12000×g for 15 min. The aqueous layer was carefully removed to 500 μL of RNase-free ethanol and mixed. From the solution, 700 μL were loaded onto Rnease Kit (Qiagen) miniprep columns and spun at 10000×g for 1 min. The remainder of the solution was then loaded and spun. The column was washed with 700 μL of RW1 buffer and discarded. The column was then washed twice with 500 μL RPE buffer and spun as previously described. The column was transferred to a new tube to elute the sample using 30 μL of RNase-free water and spun.
(§2) To ensure there is DNA-free, the sample was treated using TURBO DNA-free kit (Ambion) where a 1 μL of DNase and 3.5 μL of 10×DNase Buffer were added to the 30 μL of RNA and incubated for 1 h at 37° C. […] The concentration of RNA was determined through a ThermoFisher multichannel NanoDrop and adjusted to 50 ng/mL for cDNA reaction. […]
Experimental for MSMEG_5072: as §1, §2

As for `COc1nc2ccc(Br)cc2cc1[C@@H](c1ccccc1)[C@@](O)(CCN(C)C)c1cccc2ccccc12` [Bedaquiline (BDQ), bedaquiline], the minimum inhibitory concentration (MIC) in the data set with M. smegmatis [1] (Mycolicibacterium smegmatis) came out at 0.12 µg/mL. For the same compound, in the data set with M. smegmatis [1] (M. smegmatis), the Interaction result is listed as “Synergy” and the “FICI (Fractional Inhibitory Concentration Index)” value is on record as 0.38-0.5.
For the compound `CO[C@H]1/C=C/O[C@@]2(C)Oc3c(C)c(O)c4c(O)c(c(/C=N/N5CCN(C)CC5)c(O)c4c3C2=O)NC(=O)/C(C)=C\C=C\[C@H](C)[C@H](O)[C@@H](C)[C@@H](O)[C@@H](C)[C@H](OC(C)=O)[C@@H]1C` [Rifampin (RIF), rifampin], the MIC in the data set on M. smegmatis [1] (setting [8]) amounted to 8 µg/mL. In the data set on M. smegmatis [1] (M. smegmatis), the Interaction result is reported as “Additive” and the “FICI (Fractional Inhibitory Concentration Index)” value is 1-2.
With “cyanide m-chlorophenyl hydrazone [CCCP, reference compound]”, in data set [2], the “membrane potential (Δψ), DiSC3(5) fluorescence” value is on record as “did not exhibit concentration-dependent potential changes”.
For `CC(C)/N=c1\cc2n(-c3ccc(Cl)cc3)c3ccccc3nc-2cc1Nc1ccc(Cl)cc1` [Clofazimine (CLZ), clofazimine], in the data set on M. smegmatis [1] (setting [8]), the MIC amounted to 2.5 µg/mL. Besides, in the data set with M. smegmatis [1] (M. smegmatis), the Interaction result was “Additive”. Further, the “FICI (Fractional Inhibitory Concentration Index)” value in the data set with M. smegmatis [1] (M. smegmatis) is 0.5-0.75; in the data set on M. smegmatis [1] (M. smegmatis, listed as CLZ), 0.50-0.75.
Turning to oligo(carbamoylated guanidine) [OCG], in the data set with M. smegmatis mc^2155 [3], the “change of MIC, Msm cultured in LB compared with 7H9 medium” value is listed as “increased ˜four times”. Further, the “MIC90 Msm” value against M. smegmatis mc^2155 [3] (M. smegmatis mc 155, Table 2) was 6 µg/mL; against M. smegmatis mc^2155 [3] (Msm mc^2 155 grown in 7H9 medium), 6 µg/mL; in the data set on M. smegmatis mc^2155 [3] (Msm mc^2 155 grown in LB) it was 25 to 50 µg/mL. In addition, the “MIC90 Sa” value in the data set on S. aureus ATCC 6538 is 50 µg/mL. In the data set with E. coli ATCC 8739, the “MIC90 Ec” value is more than 200 µg/mL. Moreover, the MIC with M. smegmatis [1] (single agent in checkerboard assay, M. smegmatis) came out at 6 µM. The “MIC90 Bc” value in the data set on B. cepacia ATCC 2516 was more than 200 µg/mL. Further, the “MIC90 Pa” value in the data set on P. aureginosa ATCC 15442 is more than 200 µg/mL. For the same compound, the “MIC90 Ca” value in the data set on C. albicans ATCC 10231 is more than 200 µg/mL. In addition, the “MIC90 BCG” value in the data set with M. bovis BCG stood at 25 µg/mL. In addition, the “MIC90 Mab S” value against Mab 3690 S is 65 µg/mL. The “MIC90 Mab R” value against Mab 3690 R worked out at 188 µg/mL. Further, the “change of MIC, Mab R morphotype compared with S” value in the data set with Mab 3690 R was “˜three-fold increase”. In data set [4], this compound returned a pKa of approximately 5. For the same compound, the “NPN fluorescence (membrane damage)” value in the data set with M. smegmatis mc^2155 [5] is “no fluorescence intensity increase”. The “TEM: membrane ruffling and delamination” value in the data set with M. smegmatis mc^2155 [6] (starting from 1 h) was “signs of membrane stress including ruffling and delamination were observed”. The “TEM: frequency of cytosolic leakage, treated vs non-treated” value with M. smegmatis mc^2155 [6] (up to 24 h incubation) is reported as “no significant difference”. The “intracellular ATP levels (RLUs/CFUs)” value in the data set on M. smegmatis [7] was “depletion of ATP levels”. Besides, the “increased expression level of MSMEG_5072 compared to control Msm” value with MSMEG_5072 is given as 10 fold. Moreover, the “increased expression level of MSMEG_2694 compared to control Msm” value in the data set with MSMEG_2694 is 50 fold.
